This is an account of results in patent US20240366589A1, “NHE3-BINDING COMPOUNDS AND METHODS FOR INHIBITING PHOSPHATE TRANSPORT” (Ardelyx, Inc., priority 2013, published 2024).

The test system of experiment [1] is phosphorus and calcium levels in the urine of rats. In words: Urinary excretion of phosphate and calcium in rats (16 h overnight urine). The settings on record: rats, oral gavage, 16 h post-dose. The experiment is classed as in vivo, rat.
Experiment [2] deals with T1, Rat NHE3 (Rattus norvegicus, UniProt P26433).
T1 construct: expressed in transfected cells; host or cells: Opossum kidney (OK) cells (ATCC), electroporation
As to the kind of experiment: Cell-based NHE3 activity under prompt conditions (OK cells, BCECF pH recovery), rat NHE3. The settings on record: prompt conditions; for IC50: read-out: Prompt Rat NHE3 pIC50 (converted). A digest of the protocol: (§1)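 OK cells electroporated with rat or human NHE3 gene, loaded 30 min at room temperature with 5 μM BCECF-AM in NH4Cl-HEPES pH 7.4.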

In experiment [3] the test system is absorption of sodium from the intestinal lumen. In words: Inhibition of intestinal sodium absorption: urinary sodium (uNa) 16 h after single oral dose in rats. The experiment is classed as in vivo, rat. Particulars: oral gavage, 16 h post-dose. A digest of the protocol: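 Eight-week-old Sprague-Dawley rats (n=6) given single oral gavage of compound or water vehicle in the late afternoon, then kept in metabolic cages with chow and water ad libitum. Urine collected over 16 h; sodium quantified by ion chromatography and expressed as % of vehicle mean, compared by one-way ANOVA with Dunnett's test.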

In experiment [4] the target is T2, Human NHE3 (Homo sapiens, UniProt P48764).
T2 construct: expressed in transfected cells; host or cells: Opossum kidney (OK) cells (ATCC), electroporation
T2 sequence (P48764 26-834): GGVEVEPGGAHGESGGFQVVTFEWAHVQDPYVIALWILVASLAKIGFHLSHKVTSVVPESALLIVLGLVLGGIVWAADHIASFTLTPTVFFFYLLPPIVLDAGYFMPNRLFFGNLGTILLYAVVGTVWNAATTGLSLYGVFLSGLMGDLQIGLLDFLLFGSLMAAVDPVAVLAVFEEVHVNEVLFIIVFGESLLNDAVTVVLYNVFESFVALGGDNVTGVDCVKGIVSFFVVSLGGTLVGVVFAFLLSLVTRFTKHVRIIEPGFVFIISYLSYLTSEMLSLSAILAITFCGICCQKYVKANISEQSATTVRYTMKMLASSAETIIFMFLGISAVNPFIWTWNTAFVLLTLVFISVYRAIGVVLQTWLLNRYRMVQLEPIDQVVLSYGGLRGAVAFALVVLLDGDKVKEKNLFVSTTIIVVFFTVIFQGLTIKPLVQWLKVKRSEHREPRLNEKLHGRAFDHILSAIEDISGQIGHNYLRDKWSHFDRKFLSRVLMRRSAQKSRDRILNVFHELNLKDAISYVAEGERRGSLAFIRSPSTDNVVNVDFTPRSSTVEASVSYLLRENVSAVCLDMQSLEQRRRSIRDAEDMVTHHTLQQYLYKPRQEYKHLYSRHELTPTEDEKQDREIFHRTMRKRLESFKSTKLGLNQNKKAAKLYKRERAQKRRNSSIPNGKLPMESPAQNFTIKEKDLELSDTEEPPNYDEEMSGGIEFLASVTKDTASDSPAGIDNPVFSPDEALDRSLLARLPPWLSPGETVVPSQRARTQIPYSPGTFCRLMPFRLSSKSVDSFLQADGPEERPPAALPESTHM
In words: Cell-based NHE3 activity under prompt conditions (OK cells, BCECF pH recovery), human NHE3. The settings on record: prompt conditions. A digest of the protocol: as §1

The subject of experiment [5] is absorption of sodium from the intestinal lumen. As to the kind of experiment: Fecal form score (FFS) 16 h after oral dose in rats. The settings on record: oral gavage, 16 h post-dose, scale 1-5. The experiment is classed as in vivo, rat. A digest of the protocol: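 Eight-week-old Sprague-Dawley rats (n=6) dosed by oral gavage with compound or water vehicle between 4 and 5 PM, then housed in metabolic cages with food and water ad libitum. At 16 h, fecal form scored 1 (normal pellet) to 5 (liquid streams) by two observers; group mean reported.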

T1 sequence (P26433 29-831): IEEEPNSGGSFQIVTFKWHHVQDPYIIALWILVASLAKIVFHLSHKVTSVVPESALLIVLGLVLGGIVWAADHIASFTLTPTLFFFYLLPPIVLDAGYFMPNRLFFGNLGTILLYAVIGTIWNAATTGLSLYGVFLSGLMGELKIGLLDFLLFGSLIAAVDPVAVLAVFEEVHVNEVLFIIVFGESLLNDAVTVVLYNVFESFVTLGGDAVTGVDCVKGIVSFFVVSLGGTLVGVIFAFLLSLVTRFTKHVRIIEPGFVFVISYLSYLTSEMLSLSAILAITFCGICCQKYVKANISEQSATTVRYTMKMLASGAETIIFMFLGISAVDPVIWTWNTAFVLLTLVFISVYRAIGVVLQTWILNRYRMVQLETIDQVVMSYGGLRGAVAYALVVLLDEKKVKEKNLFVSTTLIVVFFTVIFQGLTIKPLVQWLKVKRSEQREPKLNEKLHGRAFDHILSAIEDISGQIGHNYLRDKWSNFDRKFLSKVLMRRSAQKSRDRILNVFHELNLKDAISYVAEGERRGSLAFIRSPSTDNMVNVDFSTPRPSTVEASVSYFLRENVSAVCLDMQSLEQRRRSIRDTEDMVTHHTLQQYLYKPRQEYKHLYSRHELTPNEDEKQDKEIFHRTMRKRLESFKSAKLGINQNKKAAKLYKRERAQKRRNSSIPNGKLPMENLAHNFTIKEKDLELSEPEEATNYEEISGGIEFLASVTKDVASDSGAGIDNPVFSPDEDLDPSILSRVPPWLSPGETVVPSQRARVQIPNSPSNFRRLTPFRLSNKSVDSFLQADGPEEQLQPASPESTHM

On to `CN(CC(=O)NCCOCCOCCNC(=O)NCCOCCOCCOCCOc1cccc(-c2nc(NC(=N)N)nc3ccc(Cl)cc23)c1)CC(=O)NCCOCCOCCNC(=O)NCCOCCOCCOCCOc1cccc(-c2nc(NC(=N)N)nc3ccc(Cl)cc23)c1` [compound 43], for which the “Urine P % of control” value in experiment [1] (dose 10 mg/kg) is 101%. In experiment [2], the “Prompt Rat NHE3 pIC50” value came out at 7.50. For the same molecule, in experiment [3] (dose 10 mg/kg), the “Urine Na % of control” value was found to be 70%. In experiment [4], the “Prompt Human NHE3 pIC50” value is given as 7.70. In experiment [5] (dose 10 mg/kg), the “Fecal Form Score average” value was 1.
In the same order, the values of `C/C(=C\c1cc(F)c(Oc2ccc(S(=O)(=O)NCCOCCOCCOCCNC(=O)NCCOCCOCCNC(=O)NCCOCCOCCOCCNS(=O)(=O)c3ccc(Oc4c(F)cc(/C=C(\C)C(=O)N=C(N)N)cc4F)cc3)cc2)c(F)c1)C(=O)N=C(N)N` [compound 14] are 59%, 7.00, 51%, 7.60 and 1.
The corresponding values for `CN1Cc2c(Cl)cc(Cl)cc2[C@H](c2cccc(S(=O)(=O)NCCOCCOCCNC(=O)NCCN(CCNC(=O)NCCOCCOCCNS(=O)(=O)c3cccc([C@@H]4CN(C)Cc5c(Cl)cc(Cl)cc54)c3)C(=O)CCOCCOCCOCCOCCOCCOCCOCCOCCOCCC(=O)N(CCNC(=O)NCCOCCOCCNS(=O)(=O)c3cccc([C@@H]4CN(C)Cc5c(Cl)cc(Cl)cc54)c3)CCNC(=O)NCCOCCOCCNS(=O)(=O)c3cccc([C@@H]4CN(C)Cc5c(Cl)cc(Cl)cc54)c3)c2)C1` [compound 95] are 111%, 6.60, 38%, 7.00 and 2.
Consider `CN1Cc2c(Cl)cc(Cl)cc2[C@H](c2cccc(S(=O)(=O)NCCOCCOCCNC(=O)NCCC(CCNC(=O)NCCOCCOCCNS(=O)(=O)c3cccc([C@@H]4CN(C)Cc5c(Cl)cc(Cl)cc54)c3)(CCNC(=O)NCCOCCOCCNS(=O)(=O)c3cccc([C@@H]4CN(C)Cc5c(Cl)cc(Cl)cc54)c3)NC(=O)COCC(=O)O)c2)C1` [compound 172], for which the “Urine P % of control” value in experiment [1] (dose 3 mg/kg) was 42%. Also, the “Prompt Rat NHE3 pIC50” value in experiment [2] is 8.20. Also, the “Urine Na % of control” value in experiment [3] (dose 3 mg/kg) turned out to be 26%. Besides, the “Prompt Human NHE3 pIC50” value in experiment [4] was 7.10. In addition, in experiment [5] (dose 3 mg/kg), the “Fecal Form Score average” value came out at 2.
As for `NCCOCCOCCN1CCN(c2ccc(-c3nc(N=C(N)N)nc4ccc(Cl)cc34)cc2)CC1` [compound 19], the “Urine P % of control” value in experiment [1] (dose 10 mg/kg) is on record as 119%. Besides, in experiment [2], the “Prompt Rat NHE3 pIC50” value is 7.00. Further, in experiment [3] (dose 10 mg/kg), the “Urine Na % of control” value is given as 72%. Also, the “Prompt Human NHE3 pIC50” value in experiment [4] came to 7.40. Further, in experiment [5] (dose 10 mg/kg), the “Fecal Form Score average” value worked out at 1.
The corresponding values for `CN(C)[C@H]1Cc2ccc(F)cc2[C@@H]1Oc1ccc(S(=O)(=O)NCCOCCOCCNC(=O)NCCCCNC(=O)NCCOCCOCCNS(=O)(=O)c2ccc(O[C@H]3c4cc(F)ccc4C[C@@H]3N(C)C)cc2)cc1` [compound 136] are 93%, under 5.00, 104%, 7.70 and 1.
The corresponding values for `CN1Cc2c(Cl)cc(Cl)cc2C(c2cccc(S(=O)(=O)NCCOCCOCCOCCNC(=O)NCCN(CCNC(=O)NCCOCCOCCOCCNS(=O)(=O)c3cccc([C@@H]4CN(C)Cc5c(Cl)cc(Cl)cc54)c3)CCNC(=O)NCCOCCOCCOCCNS(=O)(=O)c3cccc([C@@H]4CN(C)Cc5c(Cl)cc(Cl)cc54)c3)c2)C1` (stereo in doubt) [compound 59] are 45%, 6.90, 18%, 7.30 and 2.
As to `O=C(NCCCCNC(=O)NCCOCCOCCOCCNS(=O)(=O)c1ccc(O[C@H]2c3ccccc3C[C@@H]2N2CCCCC2)cc1)NCCOCCOCCOCCNS(=O)(=O)c1ccc(O[C@H]2c3ccccc3C[C@@H]2N2CCCCC2)cc1` [compound 72], the results for the “Urine P % of control” value in experiment [1] (dose 1 mg/kg), in experiment [1] (dose 3 mg/kg) and in experiment [1] (dose 10 mg/kg) were 99%, 115% and 43%, respectively. Further, the IC50 in experiment [2] is 5.01 nM. In addition, the “Urine Na % of control” value turned out to be 82% in experiment [3] (dose 1 mg/kg), 74% in experiment [3] (dose 3 mg/kg) and 33% in experiment [3] (dose 10 mg/kg). Also, the “Prompt Human NHE3 pIC50” value in experiment [4] stood at 8.25. The “Fecal Form Score average” value in experiment [5] (dose 1 mg/kg) was 1; in experiment [5] (dose 3 mg/kg) it was 2; in experiment [5] (dose 10 mg/kg) it was 1.
As for `CN1Cc2c(Cl)cc(Cl)cc2[C@H](c2cccc(S(=O)(=O)NCCOCCOCCNC(=O)NCCN(CCNC(=O)NCCOCCOCCNS(=O)(=O)c3cccc([C@@H]4CN(C)Cc5c(Cl)cc(Cl)cc54)c3)C(=O)CCCCCCCCCCC(=O)N(CCNC(=O)NCCOCCOCCNS(=O)(=O)c3cccc([C@@H]4CN(C)Cc5c(Cl)cc(Cl)cc54)c3)CCNC(=O)NCCOCCOCCNS(=O)(=O)c3cccc([C@@H]4CN(C)Cc5c(Cl)cc(Cl)cc54)c3)c2)C1` [compound 83], the “Urine P % of control” value in experiment [1] (dose 10 mg/kg) worked out at 59%. In addition, the “Prompt Rat NHE3 pIC50” value in experiment [2] is given as under 5.00. In addition, in experiment [3] (dose 10 mg/kg), the “Urine Na % of control” value worked out at 82%. Further, the “Prompt Human NHE3 pIC50” value in experiment [4] is given as under 5.00. Moreover, in experiment [5] (dose 10 mg/kg), the “Fecal Form Score average” value is listed as 1.
Consider `CN1Cc2c(Cl)cc(Cl)cc2C(c2cccc(NC(=O)[C@H](O)[C@@H](O)[C@H](O)[C@H](O)CO)c2)C1` (stereo in doubt) [compound 3], for which the “Urine P % of control” value in experiment [1] (dose 1 mg/kg) is on record as 57%. Also, in experiment [2], the IC50 was 39.8 nM. For the same molecule, the “Urine Na % of control” value in experiment [3] (dose 1 mg/kg) turned out to be 41%. In addition, in experiment [4], the “Prompt Human NHE3 pIC50” value was 7.60. Moreover, the “Fecal Form Score average” value in experiment [5] (dose 1 mg/kg) came out at 1.
With `CN(C)CC(=O)NC(CCC(=O)NCCOCCOCCNS(=O)(=O)c1cccc([C@@H]2CN(C)Cc3c(Cl)cc(Cl)cc32)c1)(CCC(=O)NCCOCCOCCNS(=O)(=O)c1cccc([C@@H]2CN(C)Cc3c(Cl)cc(Cl)cc32)c1)CCC(=O)NCCOCCOCCNS(=O)(=O)c1cccc([C@@H]2CN(C)Cc3c(Cl)cc(Cl)cc32)c1` [compound 128], the figures for the “Urine P % of control” value in experiment [1] (dose 1 mg/kg) and in experiment [1] (dose 3 mg/kg) were 90% and 58%, respectively. Besides, the “Prompt Rat NHE3 pIC50” value in experiment [2] amounted to 7.10. For the same molecule, the “Urine Na % of control” value is 46% in experiment [3] (dose 1 mg/kg) and 35% in experiment [3] (dose 3 mg/kg). In experiment [4], the “Prompt Human NHE3 pIC50” value was determined as 8.00. Besides, the results for the “Fecal Form Score average” value in experiment [5] (dose 1 mg/kg) and in experiment [5] (dose 3 mg/kg) were 1 and 2, respectively.
Turning to `O=C(O)CN(CCN(CC(=O)O)CC(=O)NCCOCCOCCOCCNS(=O)(=O)c1ccc(OC2c3ccccc3CC2N2CCCCC2)cc1)CC(=O)NCCOCCOCCOCCNS(=O)(=O)c1ccc(OC2c3ccccc3CC2N2CCCCC2)cc1` (stereo not shown) [compound 49], the “Urine P % of control” value in experiment [1] (dose 10 mg/kg) worked out at 77%. The “Prompt Rat NHE3 pIC50” value in experiment [2] was found to be 7.65. For the same molecule, the “Urine Na % of control” value in experiment [3] (dose 10 mg/kg) was determined as 38%. Moreover, the “Prompt Human NHE3 pIC50” value in experiment [4] came out at 7.40. Moreover, the “Fecal Form Score average” value in experiment [5] (dose 10 mg/kg) is reported as 1.
`CN1Cc2c(Cl)cc(Cl)cc2[C@H](c2cccc(S(=O)(=O)NCCOCCOCCNC(=O)CCC(CCC(=O)NCCOCCOCCNS(=O)(=O)c3cccc([C@@H]4CN(C)Cc5c(Cl)cc(Cl)cc54)c3)(CCC(=O)NCCOCCOCCNS(=O)(=O)c3cccc([C@@H]4CN(C)Cc5c(Cl)cc(Cl)cc54)c3)NC(=O)NCC(=O)O)c2)C1` [compound 164]: in experiment [1] (dose 3 mg/kg), the “Urine P % of control” value was determined as 63%. Moreover, the “Prompt Rat NHE3 pIC50” value in experiment [2] is on record as 7.53. Further, in experiment [3] (dose 3 mg/kg), the “Urine Na % of control” value is 18%. The “Prompt Human NHE3 pIC50” value in experiment [4] is 8.13. Further, the “Fecal Form Score average” value in experiment [5] (dose 3 mg/kg) is on record as 3.
Consider `NS(=O)(=O)c1ccc(O[C@H]2c3ccccc3C[C@@H]2N2CCCCC2)cc1` (racemic) [compound 38], for which the “Urine P % of control” value in experiment [1] (dose 10 mg/kg) is 120%. The IC50 in experiment [2] is 3160 nM; in experiment [4] (read-out: Prompt Human NHE3 pIC50 (converted)) it was 2510 nM. For the same molecule, the “Urine Na % of control” value in experiment [3] (dose 10 mg/kg) is 101%. In addition, the “Fecal Form Score average” value in experiment [5] (dose 10 mg/kg) came out at 1.
